From ChEMBL document CHEMBL3217701, “Squaric acid: a valuable scaffold for developing antimalarials?” (Medchemcomm, 2012) come the findings set out here.

For one series, the system named is Plasmodium falciparum. The series can be described thus: Antiplasmodial activity against chloroquine-resistant ring stage of Plasmodium falciparum W2 infected in human RBC after 48 hrs by flow cytometric analysis. The settings on record: W2, 48 h. It is filed as functional, organism-based. (In flow cytometry, cells or beads pass a laser one at a time.)
For a further series, the target named is T1, Papain (Carica papaya, UniProt P00784).
T1 sequence (P00784 whole entry): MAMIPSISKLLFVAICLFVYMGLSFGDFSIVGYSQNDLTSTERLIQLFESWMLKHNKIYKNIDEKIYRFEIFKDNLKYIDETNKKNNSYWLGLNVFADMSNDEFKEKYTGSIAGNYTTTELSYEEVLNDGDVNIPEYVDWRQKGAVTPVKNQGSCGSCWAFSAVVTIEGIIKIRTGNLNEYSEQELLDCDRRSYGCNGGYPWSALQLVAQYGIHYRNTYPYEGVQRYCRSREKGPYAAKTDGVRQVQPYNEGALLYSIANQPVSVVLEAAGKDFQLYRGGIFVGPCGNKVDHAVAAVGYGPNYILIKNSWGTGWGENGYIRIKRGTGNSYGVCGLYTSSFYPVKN
The series can be described thus: Inhibition of papaya papain using Z-Leu-Leu-Arg-AMC as substrate measured for 30 mins by fluorescence assay.

A short description of series [1]: Inhibition of Plasmodium falciparum falcipain-2 using Z-Leu-Arg-AMC as substrate after 10 mins by spectrofluorometric analysis.
A short description of series [2]: Selectivity index, ratio of IC50 for HEK293T cells to IC50 for chloroquine-resistant ring stage of Plasmodium falciparum W2. The settings on record: human; read-out: Ratio IC50. The class given is toxicity, cell-based, HEK-293T.
Series [3] in a line: Cytotoxicity against mouse NIH/3T3 cells assessed as inhibition of cell viability after 48 hrs by MTT assay. The class given is cell-based. The settings on record: NIH3T3, 48 h. For orientation: Formazan colour is commonly taken as a measure of viable cells.
The next series relates to HEK-293T. Put plainly: Cytotoxicity against HEK293T cells assessed as inhibition of cell viability after 48 hrs by MTT assay. The class given is cell-based. As to conditions: Homo sapiens.

Usually IC50 stands for the midpoint of a concentration-inhibition curve. In the case of `COc1cccc(Nc2c(Nc3cccc(OC)c3)c(=O)c2=O)c1`, the results for the IC50 (with Plasmodium falciparum; against Papain; in series [1]) were above 10 µM, above 5 µM and above 50 µM, respectively.
On to `CCN(CC)CCCNc1c(NCCCN(CC)CC)c(=O)c1=O`, for which the IC50 was above 10 µM with Plasmodium falciparum, above 10 µM against Papain and above 50 µM in series [1].
On to `COc1c(Nc2ccc(N3CCCCC3)cc2)c(=O)c1=O`, for which the IC50 with Plasmodium falciparum and against Papain was above 10 µM in each case.
Regarding `COc1c(Nc2ccc(C(C)(C)C)cc2)c(=O)c1=O`, the IC50 with Plasmodium falciparum and against Papain was above 10 µM throughout.
Regarding `COc1c(Nc2ccc(Cl)cc2)c(=O)c1=O`, the IC50 in the series on Plasmodium falciparum and against Papain was above 10 µM each time.
With `COc1ccc(Nc2c(OC)c(=O)c2=O)cc1`, the IC50 with Plasmodium falciparum and at Papain was above 10 µM each time.
Turning to `COc1c(Nc2cccnc2)c(=O)c1=O`, the IC50 with Plasmodium falciparum and against Papain was above 10 µM in each case.
On to `COc1c(NC(CO)Cc2ccccc2)c(=O)c1=O` (configuration not stated), for which the results for the IC50 (in the series with Plasmodium falciparum; at Papain; in series [1]) were above 10 µM, above 10 µM and above 50 µM, respectively.
Take `CCCCOc1c(Nc2ccc(N3CCCCC3)cc2)c(=O)c1=O`: the selectivity ratio in series [2] is above 32. For the same compound, the IC50 in series [3] is above 100 µM; in the series on Plasmodium falciparum, 3.13 µM; against Papain, above 10 µM; in the series with HEK-293T it was above 100 µM.
`CCCCOc1c(Nc2ccc(C(C)(C)C)cc2)c(=O)c1=O`: the selectivity ratio in series [2] was 4.7. Besides, the IC50 in series [3] is 17.5 µM; in the series with Plasmodium falciparum it was 2.65 µM; at Papain it was above 10 µM; in series [1] it was above 50 µM; in the series with HEK-293T it was 12.3 µM.
`O=c1c(Nc2ccc(N3CCCCC3)cc2)c(Nc2ccc(N3CCCCC3)cc2)c1=O`: the selectivity ratio in series [2] is above 12. The IC50 in series [3] is above 50 µM; with Plasmodium falciparum it was 4.16 µM; on Papain, 2.8 µM; in series [1], above 50 µM; in the series with HEK-293T, above 50 µM.
As for `CC(C)(C)c1ccc(Nc2c(Nc3ccc(C(C)(C)C)cc3)c(=O)c2=O)cc1`, the selectivity ratio in series [2] was above 101. Moreover, the 50% inhibitory concentration (IC50) is above 100 µM in series [3]; 0.99 µM in the series on Plasmodium falciparum; 8.1 µM at Papain; 24.3 µM in series [1]; above 100 µM with HEK-293T.
With `O=c1c(Nc2cccnc2)c(Nc2cccnc2)c1=O`, the half-inhibitory concentration (IC50) with Plasmodium falciparum and against Papain was above 10 µM in each case.
For the compound `O=c1c(NC(CO)Cc2ccccc2)c(NC(CO)Cc2ccccc2)c1=O` (configuration not stated), the IC50 in the series with Plasmodium falciparum and at Papain was above 10 µM in each case.
Consider `CN(C)CCNc1c(NCCN(C)C)c(=O)c1=O`, for which the IC50 in the series with Plasmodium falciparum and against Papain was above 10 µM each time.
In the case of `CCN(CC)CCNc1c(NCCN(CC)CC)c(=O)c1=O`, the IC50 was above 10 µM in the series with Plasmodium falciparum, above 10 µM against Papain and above 50 µM in series [1].
For the compound `CN(C)CCCNc1c(NCCCN(C)C)c(=O)c1=O`, the IC50 with Plasmodium falciparum and against Papain was above 10 µM in each case.
On to `CC(C)NCCCNc1c(NCCCNC(C)C)c(=O)c1=O`, for which the IC50 in the series with Plasmodium falciparum was above 10 µM; at Papain, above 10 µM; in series [1], above 50 µM.
Consider `CN(C)CC(C)(C)CNc1c(NCC(C)(C)CN(C)C)c(=O)c1=O`, for which the IC50 with Plasmodium falciparum and on Papain was above 10 µM throughout.
Regarding `CCN(CC)CCCC(C)Nc1c(NC(C)CCCN(CC)CC)c(=O)c1=O` (configuration not stated), the IC50 in the series on Plasmodium falciparum and on Papain was above 10 µM throughout.
As to `CCCCNc1c(NCCCC)c(=O)c1=O`, the IC50 with Plasmodium falciparum and against Papain was above 10 µM in each case.
With `CC(Nc1c(NC(C)c2ccccc2)c(=O)c1=O)c1ccccc1` (configuration not stated), the IC50 in the series on Plasmodium falciparum and against Papain was above 10 µM throughout.
Regarding `O=c1c(NC2CCCCC2)c(NC2CCCCC2)c1=O`, the IC50 in the series with Plasmodium falciparum and at Papain was above 10 µM in each case.
`COc1c(NNC(=O)[C@H](CC(C)C)NC(=O)OC(C)(C)C)c(=O)c1=O`: in series [2], the selectivity ratio is above 12. The IC50 in series [3] is above 100 µM; in the series on Plasmodium falciparum, 8.53 µM; at Papain, above 10 µM; in the series on HEK-293T, above 100 µM.
In the case of `COc1c(N(Cc2ccccc2)NC(=O)[C@H](CC(C)C)NC(=O)OC(C)(C)C)c(=O)c1=O`, the half-maximal inhibitory concentration (IC50) in the series with Plasmodium falciparum was above 1 µM; at Papain it was above 10 µM.
On to `COc1c(N(CCc2ccccc2)NC(=O)[C@H](CC(C)C)NC(=O)OC(C)(C)C)c(=O)c1=O`, for which the selectivity ratio in series [2] is above 16. The half-maximal inhibitory concentration (IC50) in series [3] was above 100 µM; with Plasmodium falciparum it was 6.36 µM; at Papain, above 10 µM; in the series on HEK-293T, above 100 µM.
As to `COc1c(NNC(=O)[C@H](CC(C)C)NC(=O)N2CCOCC2)c(=O)c1=O`, the IC50 in the series on Plasmodium falciparum and on Papain was above 10 µM each time.
`COc1c(N(CCc2ccccc2)NC(=O)[C@H](CC(C)C)NC(=O)N2CCOCC2)c(=O)c1=O`: the IC50 in the series on Plasmodium falciparum and against Papain was above 10 µM each time.
Turning to `COc1c(N(CCc2ccccc2)NC(=O)[C@H](CC(C)C)NC(=O)OCc2ccccc2)c(=O)c1=O`, the selectivity ratio in series [2] was above 33. The IC50 was above 100 µM in series [3], 2.99 µM with Plasmodium falciparum, above 10 µM on Papain and above 100 µM in the series with HEK-293T.
Regarding `COc1c(N(CCc2ccccc2)NC(=O)CNC(=O)OCc2ccccc2)c(=O)c1=O`, in series [2], the selectivity ratio was above 11. Also, the IC50 was above 100 µM in series [3], 9.36 µM in the series with Plasmodium falciparum, above 10 µM at Papain and above 100 µM in the series with HEK-293T.
With `COc1c(N(CCc2ccccc2)NC(=O)[C@H](Cc2ccccc2)NC(=O)OCc2ccccc2)c(=O)c1=O`, the selectivity ratio in series [2] was above 32. The IC50 is above 100 µM in series [3], 3.14 µM with Plasmodium falciparum, above 10 µM against Papain and above 100 µM in the series on HEK-293T.
On to `CCCCOc1c(NNC(=O)[C@H](CC(C)C)NC(=O)OC(C)(C)C)c(=O)c1=O`, for which the IC50 in the series on Plasmodium falciparum and at Papain was above 10 µM throughout.
Regarding `CCCCOc1c(N(CCc2ccccc2)NC(=O)[C@H](CC(C)C)NC(=O)OC(C)(C)C)c(=O)c1=O`, the IC50 with Plasmodium falciparum and on Papain was above 10 µM throughout.
Regarding `CCCCOc1c(NNC(=O)[C@H](CC(C)C)NC(=O)N2CCOCC2)c(=O)c1=O`, in series [2], the selectivity ratio is above 11. In addition, the half-inhibitory concentration (IC50) in series [3] is above 100 µM; in the series on Plasmodium falciparum, 9.45 µM; against Papain, above 10 µM; in the series with HEK-293T, above 100 µM.
On to `CCCCOc1c(N(CCc2ccccc2)NC(=O)[C@H](CC(C)C)NC(=O)N2CCOCC2)c(=O)c1=O`, for which the IC50 in the series on Plasmodium falciparum and against Papain was above 10 µM throughout.
As for `CCCCOc1c(N(CCc2ccccc2)NC(=O)[C@H](CC(C)C)NC(=O)OCc2ccccc2)c(=O)c1=O`, the selectivity ratio in series [2] is above 22. The half-maximal inhibitory concentration (IC50) in series [3] was above 100 µM; with Plasmodium falciparum, 4.51 µM; against Papain, above 10 µM; with HEK-293T it was above 100 µM.
On to `CCCCOc1c(N(CCc2ccccc2)NC(=O)CNC(=O)OCc2ccccc2)c(=O)c1=O`, for which the selectivity ratio in series [2] was above 19. In addition, the IC50 in series [3] is above 100 µM; in the series with Plasmodium falciparum, 5.17 µM; at Papain, above 10 µM; in the series on HEK-293T, above 100 µM.
In the case of `CCCCOc1c(N(CCc2ccccc2)NC(=O)[C@H](Cc2ccccc2)NC(=O)OCc2ccccc2)c(=O)c1=O`, the selectivity ratio in series [2] is above 21. Also, the IC50 in series [3] is above 100 µM; in the series on Plasmodium falciparum, 4.69 µM; against Papain, above 10 µM; in the series on HEK-293T, above 100 µM.
Compound `CC(C)C[C@H](Nc1c(Nc2ccc(C(C)(C)C)cc2)c(=O)c1=O)C(=O)NN(Cc1ccccc1)C(=O)/C=C/S(=O)(=O)c1ccccc1` yielded a half-maximal inhibitory concentration (IC50) in the series with Plasmodium falciparum above 10 µM.
`CC(C)C[C@H](Nc1c(NC(CO)Cc2ccccc2)c(=O)c1=O)C(=O)NN(Cc1ccccc1)C(=O)/C=C/S(=O)(=O)c1ccccc1` (some centres not stated): the IC50 with Plasmodium falciparum is above 10 µM.
As for `CC(C)C[C@H](NC(=O)[C@H]1O[C@@H]1C(=O)O)C(=O)NCCCCN=C(N)N` [E-64], the IC50 against Papain was 0.12 µM; in series [1], 0.06 µM.
